Patent publication US11814363B2, “Morphic forms of danicopan” (Achillion Pharmaceuticals, Inc., priority 2018, dated 2023)
Values after ≈ are worked out from the molar mass of the structure shown. Read-outs that look alike come from different tables or passages of the source.

Key:
Format in all cases: physicochemical
[1] = Visual solubility estimate of amorphous Compound 1 in solvents; settings: 40 °C, thermodynamic from solid
[2] = Dynamic vapor sorption (DVS) analysis
[3] = Visual solubility estimate of amorphous Compound 1 in solvents
Description: The solubility of amorphous Compound 1 was estimated in 14 solvents to facilitate the solvent selection for the crystallization study. The solubility of Compound 1 was visually estimated at room temperature (RT; ˜23° C.) by dosing small aliquots of solvent into a fixed amount of solid (˜10 mg) until the dissolution point or a maximum volume (1.7 mL) was reached.

[4] = Relative stability of hydrated Compound 1 forms vs water activity, PXRD; settings: for water activity value (aw) at which the form is the stable hydrate: 25° C.
Description: The relative stability of hydrated Compound 1 Form II, Form IV, and Form V were studied at 25° C. and the results are shown in Table 6. […] Form V was determined to be the stable hydrate at aw=0.75, with […] the stable hydrate at aw=0.90. The water activity of the solvent mixture used for the crystallization process must be below 0.55 in order to obtain Form II consistently.

[5] = Physical stability of crystal forms on heating, drying or storage, PXRD
[6] = 102097-CR6, 2-propanol: 20 vol % Water, water activity 0.9
[7] = CR5, Acetonitrile: 10 vol % Water, water activity 0.75

**Q.** With CC(=O)c1nn(CC(=O)N2C[C@H](F)C[C@H]2C(=O)Nc2cccc(Br)n2)c2ccc(-c3cnc(C)nc3)cc12 [Amorphous Compound 1] as the compound, how does the solubility ([1]; heptane, organic solvent or mixture) read?
**A.** < 5.59 mg/mL

**Q.** And the solubility ([1]; t-butyl methyl ether, organic solvent or mixture)?
**A.** < 5.71 mg/mL

**Q.** And the solubility ([1]; water)?
**A.** < 5.59 mg/mL

**Q.** What about the “solid form after the DVS experiment by PXRD” value ([2]; after DVS 0-90% RH) of the same compound?
**A.** remained amorphous

**Q.** What about the “water uptake (DVS)” value ([2]; from 0-90% RH) of the same compound?
**A.** 4.0%

**Q.** And the solubility ([3]; 1,4-dioxane, 23 °C, organic solvent or mixture, thermodynamic from solid, 1,4-Dioxane, RT (~23° C.), visually estimated, read-out: Solubility at RT)?
**A.** 98 to 392 mg/mL (≈ 169 to 675 mM)

**Q.** What about the solubility ([3]; 2-propanol, 23 °C, organic solvent or mixture, thermodynamic from solid, 2-Propanol, RT (~23° C.), visually estimated, read-out: Solubility at RT) of the same compound?
**A.** < 5.71 mg/mL

**Q.** What about the solubility ([3]; 2-propanol, 40 °C, organic solvent or mixture, thermodynamic from solid, 2-Propanol, 40° C., read-out: Solubility at 40° C.) of the same compound?
**A.** > 5.71 mg/mL

**Q.** What about the “Solubility at RT” value ([3]; Dimethyl Sulfoxide, RT (~23° C.), visually estimated) of the same compound?
**A.** >452 mg/mL

**Q.** And the “Solubility at RT” value ([3]; Heptane, RT (~23° C.), visually estimated)?
**A.** <5.59 mg/mL

**Q.** What about the “Solubility at RT” value ([3]; Water, RT (~23° C.), visually estimated) of the same compound?
**A.** <5.59 mg/mL

**Q.** And the solubility ([3]; acetone, 23 °C, organic solvent or mixture, thermodynamic from solid, Acetone, RT (~23° C.), visually estimated, read-out: Solubility at RT)?
**A.** 121 to 484 mg/mL (≈ 208 to 834 mM)

**Q.** What about the solubility ([3]; acetonitrile, 23 °C, organic solvent or mixture, thermodynamic from solid, Acetonitrile, RT (~23° C.), visually estimated, read-out: Solubility at RT) of the same compound?
**A.** 98 to 392 mg/mL (≈ 169 to 675 mM)

**Q.** And the solubility ([3]; chloroform, 23 °C, organic solvent or mixture, thermodynamic from solid, Chloroform, RT (~23° C.), visually estimated, read-out: Solubility at RT)?
**A.** 92 to 368 mg/mL (≈ 159 to 634 mM)

**Q.** What about the solubility ([3]; dichloromethane, 23 °C, organic solvent or mixture, thermodynamic from solid, Dichloromethane, RT (~23° C.), visually estimated, read-out: Solubility at RT) of the same compound?
**A.** 99 to 396 mg/mL (≈ 171 to 682 mM)

**Q.** What about the solubility ([3]; dimethyl sulfoxide, 23 °C, organic solvent or mixture, thermodynamic from solid, Dimethyl Sulfoxide, RT (~23° C.), visually estimated, read-out: Solubility at RT) of the same compound?
**A.** > 452 mg/mL

**Q.** What about the solubility ([3]; ethyl acetate, 23 °C, organic solvent or mixture, thermodynamic from solid, Ethyl Acetate, RT (~23° C.), visually estimated, read-out: Solubility at RT) of the same compound?
**A.** 91 to 364 mg/mL (≈ 157 to 627 mM)

**Q.** And the solubility ([3]; heptane, 23 °C, organic solvent or mixture, thermodynamic from solid, Heptane, RT (~23° C.), visually estimated, read-out: Solubility at RT)?
**A.** < 6 mg/mL

**Q.** And the solubility ([3]; methanol, 23 °C, organic solvent or mixture, thermodynamic from solid, Methanol, RT (~23° C.), visually estimated, read-out: Solubility at RT)?
**A.** 48 to 96 mg/mL (≈ 82.7 to 165 mM)

**Q.** What about the “Solubility at RT” value ([3]; t-Butyl Methyl Ether (MTBE), RT (~23° C.), visually estimated) of the same compound?
**A.** <5.71 mg/mL

**Q.** And the solubility ([3]; t-butyl methyl ether (MTBE), 23 °C, organic solvent or mixture, thermodynamic from solid, t-Butyl Methyl Ether (MTBE), RT (~23° C.), visually estimated, read-out: Solubility at RT)?
**A.** < 6 mg/mL

**Q.** And the solubility ([3]; tetrahydrofuran, 23 °C, organic solvent or mixture, thermodynamic from solid, Tetrahydrofuran, RT (~23° C.), visually estimated, read-out: Solubility at RT)?
**A.** 92 to 368 mg/mL (≈ 159 to 634 mM)

**Q.** And the solubility ([3]; toluene, 23 °C, organic solvent or mixture, thermodynamic from solid, Toluene, RT (~23° C.), visually estimated, read-out: Solubility at RT)?
**A.** < 5.35 mg/mL

**Q.** And the solubility ([3]; toluene, 40 °C, organic solvent or mixture, thermodynamic from solid, Toluene, 40° C., read-out: Solubility at 40° C.)?
**A.** > 5.35 mg/mL

**Q.** What about the solubility ([3]; water, 23 °C, water, thermodynamic from solid, Water, RT (~23° C.), visually estimated, read-out: Solubility at RT) of the same compound?
**A.** < 6 mg/mL

**Q.** With CC(=O)c1nn(CC(=O)N2C[C@H](F)C[C@H]2C(=O)Nc2cccc(Br)n2)c2ccc(-c3cnc(C)nc3)cc12 [Compound 1, danicopan] as the compound, how does the “PXRD Results 4 days/RT” value [4, 6] read?
**A.** Form III

**Q.** And the “PXRD Results 8 days/RT” value [4, 6]?
**A.** Form IH

**Q.** And the “PXRD Results 4 days/RT” value ([4]; CR1, 2-propanol, water activity 0)?
**A.** Form II

**Q.** And the “PXRD Results 4 days/RT” value ([4]; CR2, EtOAc, water activity 0)?
**A.** Form II

**Q.** And the “PXRD Results 4 days/RT” value ([4]; CR3, Methanol: 10 vol % Water, water activity 0.33)?
**A.** Form II

**Q.** And the “PXRD Results 4 days/RT” value ([4]; CR4, 2-propanol: 5 vol % Water, water activity 0.55)?
**A.** Form II

**Q.** And the “PXRD Results 4 days/RT” value [4, 7]?
**A.** Form V

**Q.** And the “PXRD Results 8 days/RT” value [4, 7]?
**A.** Form V

**Q.** For CC(=O)c1nn(CC(=O)N2C[C@H](F)C[C@H]2C(=O)Nc2cccc(Br)n2)c2ccc(-c3cnc(C)nc3)cc12 [Form III], which “crystal form after drying” value ([5]; 70° C. under vacuum for 1 hour) is on record?
**A.** did not change the crystal-form

**Q.** And the “water activity value (aw) at which the form is the stable hydrate” value (“water activity value (aw)” for short) [4]?
**A.** 0.90

**Q.** Which “crystal form by PXRD after heating past the dehydration endotherm” value ([5]; heated past dehydration endotherm, returned to room temperature) does the source give for CC(=O)c1nn(CC(=O)N2C[C@H](F)C[C@H]2C(=O)Nc2cccc(Br)n2)c2ccc(-c3cnc(C)nc3)cc12 [Form II] here?
**A.** does not change the crystal-form

**Q.** What about the “water activity value (aw)” value [4] of the same compound?
**A.** ≤ 0.55

**Q.** And the “water content of the hydrate by DVS” value ([2]; DVS isotherm)?
**A.** 2.7-4.0%

**Q.** What about the “critical RH step (DVS)” value ([2]; reversible hydration) of the same compound?
**A.** 30 % RH

**Q.** With CC(=O)c1nn(CC(=O)N2C[C@H](F)C[C@H]2C(=O)Nc2cccc(Br)n2)c2ccc(-c3cnc(C)nc3)cc12 [Form IV] as the compound, how does the “physically stable by PXRD, time” value ([5]; sealed vial) read?
**A.** at least 10 days

**Q.** With CC(=O)c1nn(CC(=O)N2C[C@H](F)C[C@H]2C(=O)Nc2cccc(Br)n2)c2ccc(-c3cnc(C)nc3)cc12 [Form VI] as the compound, how does the “PXRD pattern after sitting overnight” value ([5]; overnight on a PXRD holder, ambient) read?
**A.** closely resembles Form V

**Q.** With CC(=O)c1nn(CC(=O)N2C[C@H](F)C[C@H]2C(=O)Nc2cccc(Br)n2)c2ccc(-c3cnc(C)nc3)cc12 [Form V] as the compound, how does the “water activity value (aw)” value [4] read?
**A.** 0.75
